The text below walks through data of patent US20050059032A1, “Methods & compositions relating to drug-induced arrhythmia” (Pfizer Inc, priority 2002, published 2005).

In the data set the test system is patients with congestive heart failure or recent myocardial infarction. The conditions noted are these: human, in vivo. The source says:
Genomic DNA samples were obtained from the blood samples of patients enrolled in the DIAMOND study (Danish Investigations of Arrhythmia and Mortality on Dofetilide) or a clinical protocol similar in nature to the DIAMOND Study. These studies focused on the effects of Dofetilide on two populations of patients, one with congestive heart failure and one with recent myocardial infarction associated with left ventricular dysfunction (ejection fraction <35%) (Moller, M., (1996) Lancet, 348(9041):1597-8; Moller, M. et al., (1997) Congest Heart Fail., 7(3):146-150). DNA samples were obtained from 105 patients in total. Of the 105 patients, 7 developed torsade de pointes (TdP) upon treatment with Dofetilide while the remaining 98 patients responded to treatment without developing TdP as a side effect.

For the compound `CN(CCOc1ccc(NS(C)(=O)=O)cc1)CCc1ccc(NS(C)(=O)=O)cc1` [Dofetilide], the “patients who developed torsade de pointes (TdP) upon treatment” value came to 7.
